Measurements reported in ChEMBL document CHEMBL5236648, “Improved synthesis of deoxyalpinoid B and quantification of antileishmanial activity of deoxyalpinoid B and sulforaphane” (Bioorg Med Chem, 2023).
The source made the active and inactive calls. No cut-off for these calls is given here.

Key:
[1] = Cytotoxicity against human THP-1 cells assessed as cell viability at 5 uM incubated for 48 hrs by MTT assay relative to control; format: toxicity, cell-based; conditions: read-out: Activity
[2] = system: Leishmania donovani; test: Antileishmanial activity against Leishmania donovani MHOM/IN/Dd8 promastigotes assessed as promastigotes viability at 50 uM incubated for 48 hrs by MTT assay relative to control; format: functional
[3] = Cytotoxicity against human THP-1 cells assessed as cell viability at 10 uM incubated for 48 hrs by MTT assay relative to control; format: toxicity, cell-based; conditions: read-out: Activity
[4] = Cytotoxicity against human THP-1 cells assessed as cell viability at 50 to 100 uM incubated for 48 hrs by MTT assay relative to control
[5] = system: Leishmania infantum; test: Antileishmanial activity against Leishmania infantum MHOM/TN/80/IPT-1 promastigotes assessed as inhibition of promastigotes growth incubated for 48 hrs by MTT assay; format: functional, organism-based; conditions: MHOM/TN/80/IPT-1, 48 h
[6] = system: Leishmania donovani; test: Antileishmanial activity against Leishmania donovani MHOM/IN/Dd8 promastigotes assessed as inhibition of promastigotes growth incubated for 48 hrs by MTT assay; format: functional, organism-based; conditions: MHOM/IN/Dd8, 48 h
[7] = system: THP-1; test: Induction of oxidative stress in human THP-1 cells assessed as increase in intracellular ROS level at 10 uM incubated for 1 hr by H2DCFA fluorescent probe based flow cytometry analysis; format: functional, cell-based
[8] = system: Leishmania donovani; test: Antileishmanial activity against Leishmania donovani MHOM/IN/Dd8 promastigotes infected in PMA-differentiated human THP-1 cells assessed as activation of neuroactive ligand-receptor interactions at 10 uM incubated for 18 hrs by KEGG analysis; format: functional, organism-based
[9] = system: Leishmania donovani; test: Antileishmanial activity against Leishmania donovani MHOM/IN/Dd8 promastigotes assessed as promastigotes viability at 10 uM incubated for 48 hrs by MTT assay relative to control; format: functional
[10] = system: THP-1; test: Induction of oxidative stress in human THP-1 cells assessed as increase in intracellular ROS level at 0.5 uM incubated for 1 hr by H2DCFA fluorescent probe based flow cytometry analysis; format: functional, cell-based
[11] = system: Leishmania donovani; test: Antileishmanial activity against Leishmania donovani MHOM/IN/Dd8 metacyclic promastigotes infected in PMA-differentiated human THP-1 cells assessed as reduction in number of amastigotes per 100 cell at 0.5 uM incubated for 48 hrs by DAPI staining based inverted microscopic analysis; format: functional, organism-based
[12] = system: Leishmania donovani; test: Antileishmanial activity against Leishmania donovani MHOM/IN/Dd8 promastigotes infected in PMA-differentiated human THP-1 cells assessed as increase in heat shock protein A6 expression at 10 uM incubated for 18 hrs by RNA-seq analysis; format: functional, organism-based
[13] = system: THP-1; test: Cytotoxicity against human THP-1 cells assessed as reduction in cell viability at 50 to 100 uM incubated for 48 hrs by MTT assay; format: toxicity, cell-based; conditions: thp-1, 48 h, dose 50-100 µM
[14] = system: Leishmania donovani; test: Antileishmanial activity against Leishmania donovani MHOM/IN/Dd8 promastigotes infected in PMA-differentiated human THP-1 cells assessed as increase in heat shock protein A7 expression at 10 uM incubated for 18 hrs by RNA-seq analysis; format: functional, organism-based
[15] = system: Leishmania donovani; test: Antileishmanial activity against Leishmania donovani MHOM/IN/Dd8 metacyclic promastigotes infected in PMA-differentiated human THP-1 cells assessed as reduction in amastigotes formation at 10 uM incubated for 48 hrs by DAPI staining based inverted microscopic analysis; format: functional, organism-based
[16] = system: Leishmania donovani; test: Induction of oxidative stress in Leishmania donovani MHOM/IN/Dd8 promastigotes assessed as increase in intracellular ROS level at 10 to 50 uM incubated for 24 hrs by H2DCFA fluorescent probe based flow cytometry analysis; format: functional, organism-based; conditions: dose 10-50 µM
[17] = system: Leishmania donovani; test: Induction of oxidative stress in Leishmania donovani MHOM/IN/Dd8 promastigotes assessed as increase in mitochondrial superoxide level at 10 to 50 uM incubated for 24 hrs by Mito sox based flow cytometry analysis; format: functional, organism-based; conditions: dose 10-50 µM
[18] = system: Leishmania donovani; test: Antileishmanial activity against Leishmania donovani MHOM/IN/Dd8 promastigotes infected in PMA-differentiated human THP-1 cells assessed as increase in Hes family transcription factor 7 gene expression at 10 uM incubated for 18 hrs by RNA-seq analysis; format: functional, organism-based

Row | SMILES | viability at 48 h, 5 µM [1] [%] | Activity [2] [%] | viability at 48 h, 10 µM [3] [%] | viability at 48 h, 100 µM [4] [%] | IC50 [5] [µM] | IC50 [6] [µM] | Activity [7] | Activity [8] | Activity [9] [%] | Activity [10] | Activity [11] | Activity [12] | Activity [13] | Activity [14] | Activity [15] | Activity [16] | Activity [17] | Activity [18]
1 | C[S+]([O-])CCCCN=C=S (stereo unspecified) [SULFORAPHANE] | 84 | <10 | 76 | < 45 | 16.5 | 23.3 | Active | Active | 57 | – | – | – | – | – | – | – | – | –
2 | C[C@@H]1[C@H](O)[C@@H](C)/C=C/C=C/C=C/C=C/C=C/C=C/C=C/[C@H](O[C@@H]2O[C@H](C)[C@@H](O)[C@H](N)[C@@H]2O)C[C@@H]2O[C@](O)(C[C@@H](O)C[C@@H](O)[C@H](O)CC[C@@H](O)C[C@@H](O)CC(=O)O[C@H]1C)C[C@H](O)[C@H]2C(=O)O | – | – | – | – | – | – | – | – | – | inactive | Active | – | – | – | – | – | – | –
3 | COc1cc(CC/C=C/C(=O)CCc2ccccc2)ccc1O | 79 | <10 | 76 | – | 22 | 21.4 | Active | Active | 43 | – | – | Active | Toxic | Active | Active | Active | Active | Active
